Results on three compounds are retold here after US8598314B2 (priority 2007, dated 2013).

Like-named read-outs stand apart in the source and are kept apart here.

The target in one assay is T1, ACE from rabbit lung (Oryctolagus cuniculus, UniProt P12822).
T1 construct: ACE from rabbit lung; purchased Sigma Chemical Co; host or cells: rabbit lung tissue
T1 sequence (P12822 34-1310): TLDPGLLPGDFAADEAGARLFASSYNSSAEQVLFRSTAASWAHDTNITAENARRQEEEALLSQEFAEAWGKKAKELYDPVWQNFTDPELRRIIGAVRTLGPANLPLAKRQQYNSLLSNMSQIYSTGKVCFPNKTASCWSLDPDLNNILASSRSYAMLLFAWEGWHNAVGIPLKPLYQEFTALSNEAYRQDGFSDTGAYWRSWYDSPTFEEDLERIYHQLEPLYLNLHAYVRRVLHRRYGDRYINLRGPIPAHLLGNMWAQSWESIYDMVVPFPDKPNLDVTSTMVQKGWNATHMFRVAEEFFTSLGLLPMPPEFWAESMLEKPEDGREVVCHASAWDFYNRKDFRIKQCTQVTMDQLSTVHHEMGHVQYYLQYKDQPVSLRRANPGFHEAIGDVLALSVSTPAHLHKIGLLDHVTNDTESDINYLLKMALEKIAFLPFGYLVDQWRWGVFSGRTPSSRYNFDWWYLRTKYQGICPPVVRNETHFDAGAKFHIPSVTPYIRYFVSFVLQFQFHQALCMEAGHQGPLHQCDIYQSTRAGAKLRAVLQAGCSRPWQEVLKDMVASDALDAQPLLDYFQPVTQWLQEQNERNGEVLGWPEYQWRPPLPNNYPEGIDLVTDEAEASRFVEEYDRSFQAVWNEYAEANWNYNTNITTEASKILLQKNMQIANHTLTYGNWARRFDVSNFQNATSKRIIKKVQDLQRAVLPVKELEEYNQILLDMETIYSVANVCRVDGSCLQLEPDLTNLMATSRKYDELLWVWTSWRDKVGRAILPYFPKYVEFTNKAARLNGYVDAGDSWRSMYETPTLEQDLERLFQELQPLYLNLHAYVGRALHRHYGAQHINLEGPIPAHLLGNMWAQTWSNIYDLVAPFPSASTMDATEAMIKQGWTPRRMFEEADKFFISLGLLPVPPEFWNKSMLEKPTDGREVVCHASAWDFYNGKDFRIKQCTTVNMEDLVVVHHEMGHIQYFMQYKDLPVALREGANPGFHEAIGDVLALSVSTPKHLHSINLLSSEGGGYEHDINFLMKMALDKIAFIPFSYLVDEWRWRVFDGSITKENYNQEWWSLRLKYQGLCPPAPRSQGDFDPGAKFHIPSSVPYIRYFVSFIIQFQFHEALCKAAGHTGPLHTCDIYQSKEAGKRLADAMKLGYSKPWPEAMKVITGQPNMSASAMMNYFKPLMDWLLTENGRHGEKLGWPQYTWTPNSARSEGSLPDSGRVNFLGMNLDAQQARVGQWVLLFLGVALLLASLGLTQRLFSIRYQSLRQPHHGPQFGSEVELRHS
Kind of assay: ACE inhibition assay. It counts as biochemical. How it is done:
Peptide-ACE peptidase inhibitor conjugate compounds were assessed in an ACE inhibition assay using purified ACE enzyme and chromogenic substrates. An ACE stock solution was prepared by dissolving 0.1 unit of enzyme (ACE from rabbit lung, Sigma Chemical Co., St. Louis, Mo.) in 0.640 mL of HEPES buffer (0.1 M, pH=8). A 2 mM stock solution of substrate (N-benzyloxycarbonyl-Phe-His-Leu-OH) dissolved in methanol. The ACE inhibitor compounds were dissolved in phosphate buffer (0.1 M, pH=8) at concentrations of 0.0, 1, 10, 20, 60 and 100 μM. For the inhibition assay, six 2 mL microcentrifuge tubes were prepared containing 1.45 mL of phosphate buffer pH=8, 0.05 mL of 10% NaCl and 0.015 mL of substrate solution. To each microcentrifuge tube was added 0.015 mL of one of the ACE inhibitor compound's stock solutions. The solutions were heated at 37° C. for about 5 minutes. The reaction was started by the addition of 5 μL of the ACE stock solution to each tube mixture (30 seconds in between). The reaction mixtures were incubated at 37° C. After 5 min, 10 min, 30 min and 60 min., aliquots of 100 μL were taken from each tube (each sample was taken in intervals of 30 seconds). Tubes containing the 100 μL sample were floated in a boiling water bath for 5 min. and then cooled. The reaction samples were then treated with 20 μL of 2M NaOH and 20 μL of 0.1% phthaldialdehyde solution. The tubes were shaken for 4 minutes and 10 μL of 6 M HCl were added. […] Initial rates were determined from linear portions of product release curves. Starting substrate concentration in all assays was 20 μM. Apparent binding constants (Kd^app or Ki^app) of inhibitors to ACE were determined by fitting inhibition curves (initial rate vs. inhibitor concentration) to equation:
[formula] where v0 is reaction rate in the absence of inhibitor and [I]-inhibitor concentration. Fits were done by least-squares method using KaleidaGraph 3.6 (Synergy Software, Reading Pa.).

The target in assay [1] is T2, endogenously expressed GLP-1 receptor, thyroid c-cell carcinoma line 6-23 (Rattus norvegicus, UniProt P32301).
T2 construct: the endogenously expressed GLP-1 receptor; endogenous in cells; host or cells: thyroid c-cell carcinoma line 6-23
T2 sequence (P32301 22-463): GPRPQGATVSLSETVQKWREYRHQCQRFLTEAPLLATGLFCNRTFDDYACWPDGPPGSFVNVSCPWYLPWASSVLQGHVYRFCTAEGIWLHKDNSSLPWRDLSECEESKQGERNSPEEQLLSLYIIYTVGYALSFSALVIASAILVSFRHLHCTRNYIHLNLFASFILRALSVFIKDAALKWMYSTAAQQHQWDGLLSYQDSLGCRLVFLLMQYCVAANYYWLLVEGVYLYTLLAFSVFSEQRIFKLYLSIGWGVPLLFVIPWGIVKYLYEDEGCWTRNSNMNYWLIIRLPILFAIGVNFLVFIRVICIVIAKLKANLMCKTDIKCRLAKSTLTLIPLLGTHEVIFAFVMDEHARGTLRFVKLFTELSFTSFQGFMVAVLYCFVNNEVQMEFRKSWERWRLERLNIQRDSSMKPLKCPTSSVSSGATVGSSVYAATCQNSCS
Briefly: GLP-1 cyclase whole cell cAMP assay. It counts as cell-based. The protocol:
Cells from the thyroid c-cell carcinoma line 6-23 were grown to confluence and harvested by treatment with Versene ([…]). […] Accumulation of cAMP was measured following 30′ conjugate or control agent treatment using an HTRF® cell-based cAMP assay kit (Cisbio-US, Inc., Bedford, Mass.) in 384-well format. The compounds were tested at final concentrations from 1 μM to 10 pM. The cell-conjugate mixture was incubated for 30′ at room temperature, at which time the reaction was terminated by the addition of kit-provided α-cAMP Cryptate solution. Plates were then sealed and stored at room temperature overnight to allow components to come to full equilibrium. cAMP content was then measured by time resolved fluorescence.
A general note: Changes in cAMP serve as a functional read-out for many G protein-coupled receptors.

The mark [2] stands for this setting: substrate N-benzyloxycarbonyl-Phe-His-Leu-OH 20 μM, read-out: ACE inhibition IC50.

As for `CC[C@H](C)[C@H](NC(=O)[C@H](Cc1ccccc1)NC(=O)[C@H](CC(C)C)NC(=O)[C@H](CCCNC(=N)N)NC(=O)[C@@H](NC(=O)[C@H](C)NC(=O)[C@H](CCC(=O)O)NC(=O)[C@H](CCC(=O)O)NC(=O)[C@H](CCC(=O)O)NC(=O)[C@H](CC(C)C)NC(=O)[C@H](CCC(N)=O)NC(=O)[C@H](CCCCN)NC(=O)[C@H](CO)NC(=O)[C@H](CC(C)C)NC(=O)[C@H](CC(=O)O)NC(=O)[C@H](CO)NC(=O)[C@@H](NC(=O)[C@H](Cc1ccccc1)NC(=O)[C@@H](NC(=O)CNC(=O)[C@H](CCC(=O)O)NC(=O)CNC(=O)[C@@H](N)Cc1c[nH]cn1)[C@@H](C)O)[C@@H](C)O)C(C)C)C(=O)N[C@@H](CCC(=O)O)C(=O)N[C@@H](Cc1c[nH]c2ccccc12)C(=O)N[C@@H](CC(C)C)C(=O)N[C@@H](CCCCN)C(=O)N[C@@H](CCC(N)=O)C(=O)NCC(=O)NCC(=O)N1CCC[C@H]1C(=O)N[C@@H](CO)C(=O)N[C@@H](CCCCN)C(=O)N[C@@H](CCC(=O)O)C(=O)N[C@H](C(=O)N[C@H](C(=O)N[C@@H](CO)C(=O)NCCCC(=O)NCCC(=O)NCCCC[C@H](NC(CCc1ccccc1)C(=O)O)C(=O)N1CCC[C@H]1C(=O)O)[C@@H](C)CC)[C@@H](C)CC` (stereo partly drawn) [Compound 5716], the IC50 at ACE from rabbit lung stood at 140 nM. In assay [1], this compound came in with an EC50 of 0.14 nM.

With `CC[C@H](C)[C@H](NC(=O)[C@H](Cc1ccccc1)NC(=O)[C@H](CC(C)C)NC(=O)[C@H](CCCNC(=N)N)NC(=O)[C@@H](NC(=O)[C@H](C)NC(=O)[C@H](CCC(=O)O)NC(=O)[C@H](CCC(=O)O)NC(=O)[C@H](CCC(=O)O)NC(=O)[C@H](CC(C)C)NC(=O)[C@H](CCC(N)=O)NC(=O)[C@H](CCCCN)NC(=O)[C@H](CO)NC(=O)[C@H](CC(C)C)NC(=O)[C@H](CC(=O)O)NC(=O)[C@H](CO)NC(=O)[C@@H](NC(=O)[C@H](Cc1ccccc1)NC(=O)[C@@H](NC(=O)CNC(=O)[C@H](CCC(=O)O)NC(=O)CNC(=O)[C@@H](N)Cc1c[nH]cn1)[C@@H](C)O)[C@@H](C)O)C(C)C)C(=O)N[C@@H](CCC(=O)O)C(=O)N[C@@H](Cc1c[nH]c2ccccc12)C(=O)N[C@@H](CC(C)C)C(=O)N[C@@H](CCCCN)C(=O)N[C@@H](CC(N)=O)C(=O)NCCOCCOCCOCC(=O)NCCOCCOCC(=O)NCCCC[C@H](NC(CCc1ccccc1)C(=O)O)C(=O)N1CCC[C@H]1C(=O)O` (stereo partly drawn) [Compound 5606], the IC50 on ACE from rabbit lung (setting [2]) was determined as 700 nM. The EC50 in assay [1] came to 0.23 nM.

On to `CC[C@H](C)[C@H](NC(=O)[C@H](Cc1ccccc1)NC(=O)[C@H](CC(C)C)NC(=O)[C@H](CCCNC(=N)N)NC(=O)[C@@H](NC(=O)[C@H](C)NC(=O)[C@H](CCC(=O)O)NC(=O)[C@H](CCC(=O)O)NC(=O)[C@H](CCC(=O)O)NC(=O)[C@H](CC(C)C)NC(=O)[C@H](CCC(N)=O)NC(=O)[C@H](CCCCN)NC(=O)[C@H](CO)NC(=O)[C@H](CC(C)C)NC(=O)[C@H](CC(=O)O)NC(=O)[C@H](CO)NC(=O)[C@@H](NC(=O)[C@H](Cc1ccccc1)NC(=O)[C@@H](NC(=O)CNC(=O)[C@H](CCC(=O)O)NC(=O)CNC(=O)[C@@H](N)Cc1c[nH]cn1)[C@@H](C)O)[C@@H](C)O)C(C)C)C(=O)N[C@@H](CCC(=O)O)C(=O)N[C@@H](Cc1c[nH]c2ccccc12)C(=O)N[C@@H](CC(C)C)C(=O)N[C@@H](CCCCN)C(=O)N[C@@H](CC(N)=O)C(=O)NCCOCCOCCOCC(=O)NCCCC(=O)NCCCC[C@H](NC(CCc1ccccc1)C(=O)O)C(=O)N1CCC[C@H]1C(=O)O` (stereo partly drawn) [Compound 5609], for which the IC50 on ACE from rabbit lung (setting [2]) stood at 1000 nM. The EC50 in assay [1] is 0.65 nM.

Broadly, the IC50 is the point on the concentration scale where inhibition reaches its midpoint. What is called EC50 is the concentration needed to bring the measured effect to its halfway point. Higher therefore signals lower potency in that assay.
